# Results published in patent publication US20260041773A1, “TOPICAL COMPOSITION COMPRISING A PROSTAGLANDIN ANALOGUE” (DERMALIQ THERAPEUTICS, INC., priority 2019, published 2026).
# How the values were obtained:
# [1] = Penetration of cortexolone 17α-propionate, Franz Diffusion Cells; format: in vitro ADME; conditions: 1% (w/w) CB-03-01 in F4H5
# Experimental: Cortexolone 17α-propionate (developmental code name CB-03-01; 21-Hydroxy-3,20-dioxopregn-4-en-17-yl propionate; CAS Registry Number: 19608-29-8) was dissolved in 1-perfluorbutylpentane (F4H5) to result in a solution of 1% (w/w) CB-03-01 in F4H5.
# [2] = Penetration of latanoprost into minipig skin punches with and without hair (Franz Diffusion Cells, HPLC); format: in vitro ADME, Gottingen minipig; conditions: 2 hours incubation
# Experimental: Biological material: abdominal and dorsal full skin, R1 and part of L1 region, of 5 months old Gottingen minipig skin.
# For the incubation experiments, Franz Diffusion Cells (FDC) having an inner diameter of 15 mm and an acceptor volume of 12 ml were used. Donor and acceptor chambers were made of glass.
# Twelve frozen full thickness skin disks were punched with a diameter of 30 mm. After complete defrosting and equilibration to room temperature, the punches were clamped into Franz diffusion cells (FDC). Each skin disc was dried with wipes, clamped in between the corresponding FDCs having an inner diameter of 15 mm (1.767 cm^2 skin diffusion area) and an acceptor volume of approximately 12 ml. The receiver compartment of the cells was filled with PBS (phosphate buffered saline). Incubation was started by addition of 800 […]1 of test formulation 1-3. […]
# Out of each skin disc, 20 skin discs having a diameter of 2 mm were obtained by punching with a disposable biopsy punch, which was put on top of the skin and pressed through the full thickness of the skin. […] The ten punches with hair and without hair obtained by each disc were placed respectively in pre-weighed tubes and the weight was determined. […]
# Via HPLC analysis, the amount of latanoprost penetrated in the skin disks after incubation with the test formulations and the amount of latanoprost acid were evaluated and are illustrated in the FIGS. 1-3.
# [3] = Penetration of latanoprost solution in hair roots of pig's eyelashes (eyelid incubation, HPLC); format: in vitro ADME
# Experimental: Test formulation: 0.5 mg/ml latanoprost (Yonsung, Purity 100,2%) in 1-perfluorobutylpentane (Novaliq) and 1% v/v ethanol (Merck, Secco solve dried).
# Biological material: fresh pig's eyes with eyelids, not in buffer solution during transport from the slaughterhouse to the laboratory.
# The upper eyelids were separated from the eye with scissors, forceps and scalpel. Each eyelid was placed in a glass vessel and incubation with the test formulation was started by addition of 1 ml of formulation. Since the eyelashes had different lengths, before incubation the eyelashes were shortened to standardise the incubation procedure. After incubation according to the plan in Table 3, the eyelids were washed with 1-perfluorobutylpentane eight times and eyelashes were plucked and weighted, as shown in Table 3.
# After plucking of the eyelashes, the eyelids were punched with a 4 mm (0,126 cm^2) biopsy tool 5 times (total area 0,628 cm^2). The skin and the conjunctiva were then separated.
# Extraction via addition of […] ACN (acetonitrile) to each sample at room temperature on orbital shaker (150 rpm) and minirotator (Biosan maximum level) for 2 hours. Then the samples were centrifuged for 5 minutes at 13000 rpm. The supernatant collected from the samples was stored at −20° C. till analysis.
# The amount of latanoprost and of the bio transformed latanoprost acid in the tissues and eyelashes were determined via HPLC. For the calculation, the mean assay values for latanoprost acid were corrected with a factor of 1,1 as the molecular weight of latanoprost acid is lower than the weight of latanoprost.
"amount of latanoprost in eyelashes ([3]; FIG. 4, 2, 15, 25 hrs)",SMILES,amount found in the dermis [1],"delivery to layers of the skin ([1]; stratum corneum, epidermis and dermis)","uptake of latanoprost, skin punches with hair vs without hair ([2]; FIG. 1, microgram per cm^2)","content of latanoprost acid, punches with hair vs without hair ([2]; FIG. 2)","latanoprost acid in eyelashes ([3]; 25 hours incubation, FIG. 5)","amount of latanoprost in skin parts ([3]; FIG. 4, compared with eyelashes)"
,"CCC(=O)O[C@]1(C(=O)CO)CC[C@H]2[C@@H]3CCC4=CC(=O)CC[C@]4(C)[C@H]3CC[C@@]21C [cortexolone 17α-propionate, 21-Hydroxy-3,20-dioxopregn-4-en-17-yl propionate]",especially high amounts of cortexolone 17α-propionate were found in the dermis,effectively and rapidly delivered to layers of the skin,,,,
preferred affinity to the eyelashes,CC(C)OC(=O)CCC/C=C\C[C@@H]1[C@@H](CC[C@@H](O)CCc2ccccc2)[C@H](O)C[C@@H]1O [latanoprost],,,higher for skin punches with hair than for skin punches without hair,higher content of latanoprost acid than punches without hair,a small amount of latanoprost acid was detected,Comparable lower amount of latanoprost were detected in the skin parts
